Results: patent US9066948B2, “Oxadiazolo[3,2-a]pyrimidines and thiadiazolo[3,2-a]pyrimidines” (THE UNITED STATES OF AMERICA AS REPRESENTED BY THE …, priority 2010, dated 2015)
Like-named read-outs stand apart in the source and are kept apart here.

Legend:
[1] = tested on: washed platelets; experiment: Platelet adhesion/aggregation to collagen; format: cell-based, human
Procedure: Washed platelets are prepared as per the primary screening assay, suspended in HBMT containing 1 mM MgCl2 (platelet adhesion to collagen) or 2 mM CaCl2/1 mM MgCl2 (platelet adhesion to fibrinogen) and adjusted to a count of 250×10^9/L. HEK293 cells stably expressing normal human αVβ3 or normal human αIIbβ3 are suspended in HBMT containing either 1 mM MgCl2 (HEK293 cells expressing αVβ3 for adhesion to vitronectin) or 2 mM CaCl2/1 mM MgCl2 (HEK293 cells expressing αIIbβ3 for adhesion to fibrinogen); the cell counts are adjusted to 10^6/mL. Polystyrene 96-well microtiter plates (Nunc) are coated with either fibrinogen (50 μg/mL), vitronectin (5 μg/mL), or collagen (33 μg/mL, rat tail type 1; Becton Dickinson) for 1 hour, and blocked with HBMT for at least 1 hour. Platelets and cells are treated with the compound of Example 27 of the current invention or 2-ethyl-7-(piperazin-1-yl)-5H-[1,3,4]thiadiazolo-[3,2-a]pyrimidin-5-one of U.S. Ser. No. 12/514,286 in the presence or absence of anti-α2β1 mAb 6F1, anti-αIIbβ3 mAb 10E5, anti-αIIbβ3 mAb 10E5+αVβ3 mAb 7E3, αVβ3-specific mAb LM609, or anti-αVβ3+αIIbβ3 mAb 7E3, for 15 minutes at 37° C. before being added to the microtiter wells. After adhering for 1 hour at either 22° C. (platelets) or 37° C. (cells), nonadherent platelets or cells are removed by washing 3 times with HBMT containing the same ion composition as the buffer used for adhesion. […] In other experiments, 8-chambered glass coverslips (Nunc) are coated with collagen (33 μg/mL) for 1 hour at 22° C. Washed platelets are allowed to adhere for 1 hour at 22° C. and the coverslips are stained with the Alexa-488-conjugated β3-specific mAb 7H2. Adherent platelets are imaged using a Zeiss LSM-510 confocal system with Axiovert 200 microscope (Carl Zeiss, Heidelberg, Germany) using a Plan-Apochromat 100/1.4 NA oil DIC objective.

[2] = biological target: T1, purified αIIbβ3 (Homo sapiens, UniProt P05106+P08514); experiment: Extension of purified αIIbβ3 in nanodiscs by negative staining electron microscopy; conditions: concentrations up to 10 μM
T1 construct: αIIbβ3 is purified from outdated single donor platelet concentrates obtained from the New York Blood Center; tissue New York Blood Center; host or cells: outdated single donor platelet concentrates
T1 sequence (P08514 32-887 limits assumed): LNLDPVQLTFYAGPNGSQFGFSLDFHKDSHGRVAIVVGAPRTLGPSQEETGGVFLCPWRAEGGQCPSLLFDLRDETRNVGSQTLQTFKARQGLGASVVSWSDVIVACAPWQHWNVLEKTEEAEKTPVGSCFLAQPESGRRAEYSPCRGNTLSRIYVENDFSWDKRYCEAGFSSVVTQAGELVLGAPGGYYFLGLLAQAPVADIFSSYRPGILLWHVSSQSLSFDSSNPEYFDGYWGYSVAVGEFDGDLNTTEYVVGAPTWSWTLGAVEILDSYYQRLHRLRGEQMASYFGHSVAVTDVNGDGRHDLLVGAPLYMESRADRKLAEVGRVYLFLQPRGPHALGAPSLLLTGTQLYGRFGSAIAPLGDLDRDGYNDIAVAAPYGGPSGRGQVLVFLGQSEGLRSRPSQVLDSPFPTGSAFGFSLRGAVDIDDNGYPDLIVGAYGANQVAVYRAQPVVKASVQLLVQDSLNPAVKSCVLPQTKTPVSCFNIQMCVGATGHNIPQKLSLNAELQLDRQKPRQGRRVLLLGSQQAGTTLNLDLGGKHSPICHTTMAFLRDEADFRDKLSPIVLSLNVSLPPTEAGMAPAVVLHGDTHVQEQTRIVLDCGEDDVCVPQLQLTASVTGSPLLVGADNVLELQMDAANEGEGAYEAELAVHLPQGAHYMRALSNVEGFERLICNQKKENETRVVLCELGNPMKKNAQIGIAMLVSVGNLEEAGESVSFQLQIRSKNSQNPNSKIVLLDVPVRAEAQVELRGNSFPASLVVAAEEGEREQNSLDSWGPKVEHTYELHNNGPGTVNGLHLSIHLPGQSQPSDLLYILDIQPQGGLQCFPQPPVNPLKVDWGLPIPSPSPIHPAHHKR
T1 sequence (P08514 891-1039 partner limits assumed): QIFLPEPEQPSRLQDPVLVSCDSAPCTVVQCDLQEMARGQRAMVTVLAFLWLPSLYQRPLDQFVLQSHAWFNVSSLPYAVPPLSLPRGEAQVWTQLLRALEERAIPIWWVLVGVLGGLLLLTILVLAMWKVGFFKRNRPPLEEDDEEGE
T1 sequence (P05106 27-788): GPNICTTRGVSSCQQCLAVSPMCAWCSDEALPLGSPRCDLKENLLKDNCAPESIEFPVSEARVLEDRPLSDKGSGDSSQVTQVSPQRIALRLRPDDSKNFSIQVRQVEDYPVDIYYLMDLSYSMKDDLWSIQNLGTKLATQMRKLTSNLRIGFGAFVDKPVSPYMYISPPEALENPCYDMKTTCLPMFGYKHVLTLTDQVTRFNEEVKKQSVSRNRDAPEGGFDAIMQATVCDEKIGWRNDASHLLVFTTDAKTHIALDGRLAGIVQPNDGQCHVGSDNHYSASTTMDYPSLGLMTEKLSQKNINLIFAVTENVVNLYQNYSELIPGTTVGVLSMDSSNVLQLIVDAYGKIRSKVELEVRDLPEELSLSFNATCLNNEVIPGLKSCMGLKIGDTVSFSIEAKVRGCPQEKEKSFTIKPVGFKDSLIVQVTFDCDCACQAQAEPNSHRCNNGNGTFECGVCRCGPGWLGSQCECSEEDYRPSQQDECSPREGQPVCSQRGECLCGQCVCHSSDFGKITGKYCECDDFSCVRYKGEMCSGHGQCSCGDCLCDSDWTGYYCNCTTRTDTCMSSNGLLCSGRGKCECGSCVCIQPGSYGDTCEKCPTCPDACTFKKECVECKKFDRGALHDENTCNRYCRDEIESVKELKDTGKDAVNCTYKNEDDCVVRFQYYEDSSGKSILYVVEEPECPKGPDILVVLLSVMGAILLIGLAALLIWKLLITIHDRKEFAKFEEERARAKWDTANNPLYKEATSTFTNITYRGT
Procedure: In brief, the His-tagged membrane scaffold protein is prepared as a recombinant protein in E. coli and purified by Nickel affinity chromatography and anion exchange chromatography. Final assembly consists of solubilizing an equimolar mixture of 1,2-dimyristoyl-sn-glycero-3-phosphocholine and 1,2-dimyristoyl-sn-glycero-3-phospho-(1′-rac-glycerol) in octylglucoside and cholate and then adding the purified αIIbβ3. The detergents are removed with macroporous polymeric beads (Bio-Bead SM-2) and then the αIIbβ3 nanodiscs are separated from the empty nanodiscs by gel filtration.
αIIbβ3 nanodiscs are treated with eptifibatide, tirofiban, 2-ethyl-7-(piperazin-1-yl)-5H-[1,3,4]thiadiazolo-[3,2-a]pyrimidin-5-one of U.S. Ser. No. 12/514,286, or the compound of Example 27 of the current invention for 1 hour at room temperature at concentrations up to 100 μM for 2-ethyl-7-(piperazin-1-yl)-5H-[1,3,4]thiadiazolo-[3,2-a]pyrimidin-5-one (a compound claimed in U.S. Ser. No. 12/514,286) and at concentrations up to 10 μM for 2-amino-N-(3-(5-oxo-7-(piperazin-1-yl)-5H-[1,3,4]thiadiazolo[3,2-a]pyrimidin-2-yl)phenyl)acetamide of Example 27. Samples are loaded onto carbon-coated copper grids that are glow-discharged by a carbon coating unit (Edwards; Crowley, UK), and then stained with 2% uranyl acetate, followed by drying. Imaging of αIIbβ3 nanodiscs is performed using a JOEL JEM 100CX transmission electron microscope (Jeol Ltd; Tokyo, Japan) at 80 kV and magnifications of 33,000× and 50,000×. Individual nanodiscs containing αIIbβ3 are manually selected for analysis using Image J (NIH, Bethesda, Md.). The distance from the bottom of the nanodisc to the height of the αIIbβ3 complex (nanodisc-integrin length; NIL) is measured as an indicator of integrin extension. The frequency distribution of NIL values is then analyzed for untreated αIIbβ3 nanodiscs and αIIbβ3 nanodiscs in the presence of different compounds.

[3] = tested on: platelets; experiment: Platelet aggregation assay: ADP-induced, platelet-rich plasma; format: cell-based, human; conditions: for IC50: Homo sapiens, Platelet, n=4
Procedure: […] After 30 seconds in the aggregometer (Kowa AF-10E; Tokyo, Japan) at 37° C. with stirring, ADP (5-20 μM) is added to induce aggregation and the light transmittance is measured for 8 minutes. The initial slopes of aggregation in the presence of different concentrations of the Compound being tested are used to generate an IC50.

[4] = tested on: WT mouse platelets; experiment: ADP-induced platelet aggregation, mouse PRP (Example 45); format: cell-based
Procedure: Blood may be drawn via cardiac puncture from anesthetized Sprague Dawley rats (Taconic, Hudson, N.Y.), WT C57B1/6 mice (Jackson Laboratories, Bar Harbor, Me.), and mice expressing hαIIb/mβ3 and diluted 1:1 with a mixture of 4 parts 0.165 […], pH 7.4 containing 2 mM CaCl2 and 1 mM MgCl2. Blood from consenting human volunteers is obtained from a peripheral vein using a 19 gauge needle and anticoagulated with 1:10 vol 3.8% sodium citrate. Platelet-rich plasma (PRP) may be isolated by centrifugation at 22° C. at 350 g for 10 minutes (rats); 250 g for 2.5 minutes (mice); or 650 g for 4 minutes (human). Mouse PRP samples may be adjusted to 400,000 platelets/μl with the buffer used for dilution and human PRP may be adjusted to 300,000 platelets/μl with platelet-poor plasma. […] Platelet aggregation may be induced by adding to PRP adenosine diphosphate (ADP) at 30 μM (rats and WT mice), 20 or 30 μM (hαIIb/mβ3 mice), or 5 μM (humans), and light transmission may be measured over time in an aggregometer (Kowa AG-10E, Tokyo, Japan) with stirring. Percent inhibition may be calculated by comparing the initial slope of untreated samples to the samples treated with the Compounds of the Invention.

NCC(=O)Nc1cccc(-c2nn3c(=O)cc(N4CCNCC4)nc3s2)c1 [Example 27, 2-amino-N-(3-(5-oxo-7-(piperazin-1-yl)-5H-[1,3,4]thiadiazolo[3,2-a]pyrimidin-2-yl)phenyl)acetamide]
inhibition of platelet adhesion/aggregation to collagen ([1]; 1-100 μM): ~30%
further inhibition of adhesion/aggregation to collagen when combined with anti-αIIbβ3 antibody 10E5 ([1]; combination with mAb 10E5): does not further inhibit adhesion/aggregation
platelet adhesion to collagen, microscopic analysis ([1]; confocal microscopy of adherent platelets): does not decrease platelet adhesion to collagen
shift of nanodisc-integrin length (NIL) values / receptor extension [2]: do not induce receptor extension
potency in inhibiting platelet aggregation relative to 2-ethyl-7-(piperazin-1-yl)-5H-[1,3,4]thiadiazolo-[3,2-a]pyrimidin-5-one [3]: more than one hundred-fold more potent
IC50 ([3]; PPACK instead of citrate, read-out: IC50, ADP-induced platelet aggregation with PPACK as anticoagulant): 0.22 µM
IC50 ([3]; citrate anticoagulant, read-out: IC50, ADP-induced platelet aggregation of citrated PRP): 0.09 ± 0.02 µM
IC50 with PPACK relative to citrate ([3]; PPACK vs citrate): ~3 fold
selectivity for human compared to mouse or rat αIIbβ3 [4]: selective for human WIND compared to mouse or rat αIIbβ3
inhibition of mouse platelet aggregation induced by ADP ([4]; 1 μM): does not inhibit either mouse or rat platelet aggregation
